Test results: patent US20230180809A1, “NUTRACEUTIC COMPOSITION COMPRISING LIMONENE AND A DRY EXTRACT OF COCOA FIBRE FOR THE TREATMENT OF OBESITY” (TARGETING GUT DISEASE SRL, priority 2020, published 2023)

Tested on: obese mice
Assay: slimming effect of limonene in obese mice
Assay type: in vivo
Conditions: obese mice after 12 weeks of high lipid diet, feed containing 0.5% of limonene ad libitum for 2 weeks
Description: Animal feed having a concentration of 0.5% in limonene corresponding to a daily dose of 0.6 g/kg of weight in humans. After 12 weeks of high lipid diet that caused obesity, mice were administered ad libitum, animal feed containing 0.5% of limonene for 2 weeks.

C=C(C)[C@H]1CC=C(C)CC1 [limonene]
accumulation of lipids in the cells: preventing the accumulation of lipids
reduction of serum triglycerides: up to 47%
size of both white and brown adipocytes: decreasing the size
